The values that follow come from patent US10590109B2, “Heterocyclic compounds used as FGFR inhibitors” (Nanjing InnoCare Pharma Tech Co., Ltd., priority 2016, dated 2020).

What all share (type): biochemical
Experiment [1] concerns the target human recombinant FGFR4 catalytic structural domain protein (Homo sapiens (Human), UniProt P22455). The experiment is described as follows: FGFR4 activity inhibition test (HTRF kinase assay). To be noted: 90 μM ATP. The protocol: FGFR4 Activity Inhibition Test
The influence of the compound according to the present invention on the activity of fibroblast growth factor receptor 4 (FGFR4) was evaluated by an in vitro kinase assay experiment.
(§1) The experimental method is summarized as follows:
The in vitro activity of FGFR4 was determined by assaying the phosphorylation level of the substrate in the kinase reaction, by means of an HTRF kinase assay kit.
(§2) If the IC50 value of the compound was very low, the initial concentration of the compound could be reduced.
After 60 min, the enzyme reaction was terminated by EDTA in the assay solution, and the phosphorylated products were identified by both the Eu^3+ labeled cage-shaped antibody (donor) and the streptavidin labeled XL665 antibody (receptor) at the same time. […] The inhibition percentage of the compound against FGFR4 activity could be calculated with the following formula: Inhibition percentage=100−100*(signalcompound−signalnegative control)/(signalpositive control−signalnegative control)
The IC50 value of the compound was calculated by the following formula, from 10 concentration points, with XLfit (ID Business Solutions Ltd., UK): Y=Bottom+(Top−Bottom)/(1+10^((Log IC50−X)*slope factor)) Where, Y is the inhibition percentage, Bottom is the bottom plateau of the curve (the bottom plateau of the S-type curve), Top is the top plateau of the curve (the top plateau of the S-type curve), and X is the log value of the compound concentration to be measured.
A general note: In TR-FRET formats the signal depends on donor and acceptor labels being close together.

Experiment [2] concerns the target human recombinant FGFR1 catalytic structural domain protein (Homo sapiens (Human), UniProt P11362). The experiment is described as follows: FGFR1 activity inhibition test (HTRF kinase assay). As to conditions: 40 μM ATP. The method, then:
FGFR1 Activity Inhibition Test
The influence of the compound according to the present invention on the activity of fibroblast growth factor receptor 1 (FGFR1) was evaluated by an in vitro kinase assay experiment.
as §1
The in vitro activity of FGFR1 was determined by assaying the phosphorylation level of the substrate in the kinase reaction, by means of an HTRF kinase assay kit.
as §2
After 60 min, the enzyme reaction was terminated by EDTA in the assay solution, and the phosphorylated products were identified by both the Eu^3+ labeled cage-shaped antibody (donor) and the streptavidin labeled XL665 antibody (receptor) at the same time. […] The inhibition percentage of the compound against FGFR1 activity could be calculated with the following formula: Inhibition percentage=100−100*(signalcompound−signalnegative control)/(signalpositive control−signalnegative control)
(§3) The IC50 value of the compound was calculated by the following formula, from 10 concentration points, with XLfit (ID Business Solutions Ltd., UK): Y=Bottom+(Top−Bottom)/(1+10^((Log IC50−X)*slope factor))
(§4) Where, Y is the inhibition percentage, Bottom is the bottom plateau of the curve (the bottom plateau of the S-type curve), Top is the top plateau of the curve (the top plateau of the S-type curve), and X is the log value of the compound concentration to be measured.

Experiment [3] has as its target human recombinant FGFR2 catalytic structural domain protein (Homo sapiens (Human), UniProt P21802). The experiment is described as follows: FGFR2 activity inhibition test (HTRF kinase assay). To be noted: 50 μM ATP. The protocol: FGFR2 Activity Inhibition Test
The influence of the compound according to the present invention on the activity of fibroblast growth factor receptor 2 (FGFR2) was evaluated by an in vitro kinase assay experiment.
as §1
The in vitro activity of FGFR2 was determined by assaying the phosphorylation level of the substrate in the kinase reaction, by means of an HTRF kinase assay kit. The reaction buffer comprised the following components: 5-fold diluted Enzymatic buffer/kinase 5× (Cisbio, Catalog number 62EZBFDD) (main ingredient: 50 mM HEPES, pH 7.0), 5 mM MgCl2, 1 mM DTT; the human recombinant FGFR2 catalytic structural domain protein (amino acids 400-821) was commercially available from Beijing Sino Biological Inc., diluted with the reaction buffer to a 0.045 ng/μL kinase solution; the substrate reaction solution comprised a biotin labeled tyrosine kinase substrate diluted with the reaction buffer to 800 nM (Cisbio, catalog number 62TK0PEC), and 50 μM ATP, and the assay solution comprised an Eu^3+ labeled cage-shaped antibody (Cisbio, Catalog number 61T66KLB) diluted with the assay buffer (Cisbio, Catalog number 62SDBRDF) to 0.125 ng/μL, and 50 nM streptavidin labeled XL665 (Cisbio, Catalog number 610SAXLB).
The compound was dissolved and diluted in 100% DMSO to 100 μM, then 4-fold-series diluted with DMSO to a minimum concentration of 0.0061 μM, and each concentration point was then 40-fold diluted with the reaction buffer. If the IC50 value of the compound was very low, the initial concentration of the compound could be reduced.
4 μL of a compound solution and 2 μL of an FGFR2 kinase solution were added into a 384 well assay plate (Thermo, Catalog number 264706), mixed uniformly and then incubated for 15 min at room temperature; subsequently, 4 μL of the substrate reaction solution was added therein, and the reaction mixture was incubated for 60 min at room temperature; and then 10 μL of an assay solution of an equal volume to the reaction was added therein and mixed uniformly, followed by placement at room temperature. After 60 min, the enzyme reaction was terminated by EDTA in the assay solution, and the phosphorylated products were identified by both the Eu^3+ labeled cage-shaped antibody (donor) and the streptavidin labeled XL665 antibody (receptor) at the same time. After the excitation with laser, the donors and receptors that were close to each other experienced energy resonance transfer, and the energy transferred from the donor (620 nm) to the receptor (665 nm) could be detected with Envision. The ratio of 665/620 is in positive correlation to the phosphorylation degree of the substrate, thereby to detect the FGFR2 kinase activity. […] The inhibition percentage of the compound against FGFR2 activity could be calculated with the following formula: Inhibition percentage=100−100*(signalcompound−signalnegative control)/(signalpositive control−signalnegative control)
as §3, §4

What is called IC50 is the concentration that gives 50% inhibition.

Chain of human recombinant FGFR1 catalytic structural domain protein (P11362 other isoform, or with tags, fused parts or gaps): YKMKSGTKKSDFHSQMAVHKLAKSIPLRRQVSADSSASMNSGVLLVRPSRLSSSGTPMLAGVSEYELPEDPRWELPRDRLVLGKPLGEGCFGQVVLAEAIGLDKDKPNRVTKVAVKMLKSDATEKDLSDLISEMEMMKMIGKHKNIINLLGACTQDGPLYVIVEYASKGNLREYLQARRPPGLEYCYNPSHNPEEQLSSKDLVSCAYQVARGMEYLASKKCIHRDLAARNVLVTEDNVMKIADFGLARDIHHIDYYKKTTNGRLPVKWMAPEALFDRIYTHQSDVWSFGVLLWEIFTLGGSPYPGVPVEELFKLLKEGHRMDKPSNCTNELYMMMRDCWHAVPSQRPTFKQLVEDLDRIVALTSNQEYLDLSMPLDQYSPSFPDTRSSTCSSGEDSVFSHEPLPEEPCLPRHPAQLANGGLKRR
Chain of human recombinant FGFR2 catalytic structural domain protein (P21802 400-821): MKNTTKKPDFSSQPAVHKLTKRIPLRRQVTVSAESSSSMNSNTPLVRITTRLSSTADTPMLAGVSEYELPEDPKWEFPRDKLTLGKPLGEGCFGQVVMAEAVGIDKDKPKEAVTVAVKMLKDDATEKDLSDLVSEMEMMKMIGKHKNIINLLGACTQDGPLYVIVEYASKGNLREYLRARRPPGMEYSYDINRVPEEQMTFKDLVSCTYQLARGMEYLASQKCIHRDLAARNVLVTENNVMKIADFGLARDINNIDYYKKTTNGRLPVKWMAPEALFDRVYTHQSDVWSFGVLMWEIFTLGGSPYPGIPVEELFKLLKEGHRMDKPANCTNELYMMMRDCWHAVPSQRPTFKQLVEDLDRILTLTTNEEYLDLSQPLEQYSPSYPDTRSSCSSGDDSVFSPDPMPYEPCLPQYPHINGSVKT
Chain of human recombinant FGFR4 catalytic structural domain protein (P22455 460-802): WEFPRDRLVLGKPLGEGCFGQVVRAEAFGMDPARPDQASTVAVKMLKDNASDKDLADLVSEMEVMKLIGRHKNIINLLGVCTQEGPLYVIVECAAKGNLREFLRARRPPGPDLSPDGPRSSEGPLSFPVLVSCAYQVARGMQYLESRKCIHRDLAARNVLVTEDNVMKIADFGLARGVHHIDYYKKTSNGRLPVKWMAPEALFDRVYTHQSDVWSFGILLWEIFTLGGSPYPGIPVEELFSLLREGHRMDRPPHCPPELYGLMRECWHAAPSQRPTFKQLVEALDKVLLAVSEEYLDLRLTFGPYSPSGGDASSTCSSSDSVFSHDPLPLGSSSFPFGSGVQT

For `COC[C@@H](C)Oc1cc(NC(=O)N(C)c2ccc(CN3CCOCC3=O)c(C=O)n2)ncc1C#N` [Compound 14, (R)-3-(5-cyano-4-((1-methoxyprop-2-yl)oxo)pyrid-2-yl)-1-(6-formyl-5-((3-carbonylmorpholino)methyl)pyrid-2-yl)-1-methylurea], the IC50 in experiment [1] was under 10 nM; in experiment [2] it was over 1000 nM; in experiment [3] it was over 1000 nM.
